Data from patent US7288537B2, “Azetidine derivatives as CCR-3 receptor antagonists” (Novartis AG, priority 2002, dated 2007).

Assays:
human CCR-3 = molecular target: T1, human CCR-3 (Homo sapiens, UniProt P51677); assay: CCR-3 binding assay (SPA, [125I]-human eotaxin); conditions: membranes of RBL-2H3 cells stably expressing CCR3, 4 hours at room temperature, read-out: IC50, inhibition of binding of human eotaxin to human CCR-3
T1 construct: expressed in transfected cells; membranes
T1 sequence (P51677 1-355): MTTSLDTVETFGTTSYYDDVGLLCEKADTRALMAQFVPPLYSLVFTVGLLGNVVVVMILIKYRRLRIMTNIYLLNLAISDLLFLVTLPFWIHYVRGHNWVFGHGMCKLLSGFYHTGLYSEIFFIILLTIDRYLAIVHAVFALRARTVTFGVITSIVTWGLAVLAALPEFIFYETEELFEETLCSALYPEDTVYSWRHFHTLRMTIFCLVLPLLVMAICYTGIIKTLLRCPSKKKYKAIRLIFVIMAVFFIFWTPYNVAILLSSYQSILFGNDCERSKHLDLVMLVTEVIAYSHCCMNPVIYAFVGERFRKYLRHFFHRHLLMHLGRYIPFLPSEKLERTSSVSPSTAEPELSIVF
Protocol: In this assay the effect of agents of the invention on the binding of human eotaxin to human CCR-3 is determined. Recombinant cells expressing human CCR-3 are captured by wheatgerm agglutinin (WGA) polyvinyltoluidene (PVT) SPA beads (available from Amersham), through a specific interaction between the WGA and carbohydrate residues of glycoproteins on the surface of the cells. [^125I]-human eotaxin (available from Amersham) binds specifically to CCR-3 receptors bringing the [^125I]-human eotaxin in close proximity to the SPA beads. Emitted â-particles from the [^125I]-human eotaxin excite, by its proximity, the fluorophore in the beads and produce light.
Preparation of Assay Buffer: 5.96 g HEPES and 7.0 g sodium chloride are dissolved in distilled water and 1M aqueous CaCl2 (1 ml) and 1M aqueous MgCl2 (5 ml) are added. The pH is adjusted to 7.6 with NaOH and the solution made to a final volume of 1 L using distilled water. 5 g bovine serum albumin and 0.1 g sodium azide are then dissolved in the solution and the resulting buffer stored at 4° C. A Complete™ protease inhibitor cocktail tablet (available from Boehringer) is added per 50 ml of the buffer on the day of use.
Preparation of Homogenisation Buffer: Tris-base (2.42 g) is dissolved in distilled water, the pH of the solution is adjusted to 7.6 with hydrochloric acid and the solution is diluted with distilled water to a final volume of 1 l. The resulting buffer is stored at 4° C. A Complete™ protease inhibitor cocktail tablet is added per 50 ml of the buffer on the day of use.
Preparation of membranes: Confluent rat basophil leukemia (RBL-2H3) cells stably expressing CCR3 are removed from tissue culture flasks using enzyme-free cell dissociation buffer and resuspended in phosphate-buffered saline. The cells are centrifuged (800 g, 5 minutes), the pellet resuspended in ice-cold homogenisation buffer using 1 ml homogenisation buffer per gram of cells and incubated on ice for 30 minutes. The cells are homogenised on ice with 10 strokes in a glass mortar and pestle. The homogenate is centrifuged (800 g, 5 minutes, 4° C.), the supernatant further centrifuged (48,000 g, 30 minutes, 4° C.) and the pellet redissolved in Homogenisation Buffer containing 10% (v/v) glycerol. The protein content of the membrane preparation is estimated by the method of Bradford (Anal. Biochem. (1976) 72:248) and aliquots are snap frozen and stored at −80° C.
The assay is performed in a final volume of 250 μl per well of an Optiplate™ microplate (ex Canberra Packard). To selected wells of the Optiplate™ are added 50 μl of solutions of a test compound in Assay Buffer containing 5% DMSO (concentrations from 0.01 nM to 10 μM). To determine total binding, 50 μl of the Assay Buffer containing 5% DMSO is added to other selected wells. To determine non-specific binding, 50 μl of 100 nM human eotaxin (ex R&D Systems) in Assay Buffer containing 5% DMSO is added to further selected wells. To all wells are added 50 μl [^125I]-Human eotaxin (ex Amersham) in Assay Buffer containing 5% DMSO at a concentration of […] (to give a final concentration of […]), 50 μl of WGA-PVT SPA beads in Assay Buffer (to give a final concentration of 1.0 mg beads per well) and 100 μl of the membrane preparation at a concentration of 100 μg protein in Assay Buffer (to give a final concentration of 10 μg protein per well). The plate is then incubated for 4 hours at room temperature. The plate is sealed using TopSeal-S™ sealing tape (ex Canberra Packard) according to the manufacturers instructions. The resulting scintillations are counted using a Canberra Packard TopCount™ scintillation counter, each well being counted for 1 minute. The concentration of test compound at which 50% inhibition occurs (IC50) is determined from concentration-inhibition curves in a conventional manner.

histamine H1 = histamine H1 (Homo sapiens, UniProt P35367); assay: histamine H1 antagonism
[1] = molecular target: alpha-1 adrenergic receptor; assay: alpha-1 adrenergic receptor radioligand binding assay ([125I]-HEAT, cerebral cortex membranes); conditions: rat cerebral cortex membranes; radioligand used at 40 pM
Protocol: Cerebral cortices from male Sprague-Dawley rats (175-200 g) are dissected and homogenised in 10 volumes of ice cold 0.32 M sucrose (containing 1 mM MgCl2 dihydrate and 1 mM K2HPO4) with a glass/teflon homogeniser. The membranes are centrifuged at 1000×g for 15 miN, the pellet discarded and the centrifugation repeated. The supernatants are pooled and centrifuged at 18,000×g for 15 minutes. The pellet is osmotically shocked in 10 volumes of water and kept on ice for 30 minutes. The suspension is centrifuged at 39,000×g for 20 minutes, resuspended in Krebs-Henseleit buffer pH 7.4 (1.17 mM MgSO4 anhydrous, 4.69 mM KCl, 0.7 mM K2HPO4 anhydrous, 0.11 M NaCl, 11 mM D-glucose and 25 mM NaHCO3) containing 20 mM Tris, and kept for 2 days at −20° C. The membranes are then thawed at 20-23° C., washed three times with Krebs-Henseleit buffer by centrifugation at 18,000×g for 15 minutes, left overnight at 4° C. and washed again three times. The final pellet is resuspended with a glass/teflon homogeniser in 125 ml/100 membranes in the same buffer. […]
The resulting membranes are subjected to a radioligand binding assay. […] Following drying of the plates for 3 h. at 50° C., 40 μl of Microscint 20 is added to each well, the plates incubated at room temperature for a further 20 minutes and the retained radioactivity quantified in a Packard TopCount NXT™ scintillation counter. […]

Sequence of histamine H1 (P35367 whole entry): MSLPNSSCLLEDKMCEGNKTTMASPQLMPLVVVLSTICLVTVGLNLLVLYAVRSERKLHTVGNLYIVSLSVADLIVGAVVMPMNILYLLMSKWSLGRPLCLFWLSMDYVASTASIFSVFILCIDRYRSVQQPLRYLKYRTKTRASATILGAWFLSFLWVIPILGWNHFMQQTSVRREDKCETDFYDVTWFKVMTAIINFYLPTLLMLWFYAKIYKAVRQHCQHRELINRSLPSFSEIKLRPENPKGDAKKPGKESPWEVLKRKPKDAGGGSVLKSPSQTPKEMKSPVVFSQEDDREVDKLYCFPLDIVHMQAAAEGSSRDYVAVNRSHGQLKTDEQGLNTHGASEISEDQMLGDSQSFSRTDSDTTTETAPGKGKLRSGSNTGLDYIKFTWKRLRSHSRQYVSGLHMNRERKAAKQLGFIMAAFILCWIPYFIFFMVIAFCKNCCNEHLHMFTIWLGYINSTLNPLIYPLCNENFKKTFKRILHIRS

COc1cc(NC(=O)N[C@H](CO)CCN2CC(Oc3ccc(Cl)cc3)C2)cc(OC)c1 [Example 26, 1-{(S)-3-[3-(4-Chloro-phenoxy)-azetidin-1-yl]-1-hydroxymethyl-propyl}-3-(3,5-dimethoxy-phenyl)-urea]
IC50 (human CCR-3): 7 nM

Cn1nc(C2CC2)cc1NC(=O)N[C@H](CO)CCN1CC(Oc2ccc(Cl)cc2)C1 [Example 83, 1-{(S)-3-[3-(4-Chloro-phenoxy)-azetidin-1-yl]-1-hydroxymethyl-propyl}-3-(5-cyclopropyl-2-methyl-2H-pyrazol-3-yl)-urea]
IC50 (human CCR-3): 5 nM

CCc1cc(NC(=O)N[C@H](CO)CCN2CC(Oc3ccc(Cl)cc3)C2)n(C)n1 [Example 88, 1-{(S)-3-[3-(4-Chloro-phenoxy)-azetidin-1-yl]-1-hydroxymethyl-propyl}-3-(5-ethyl-2-methyl-2H-pyrazol-3-yl)-urea]
IC50 (human CCR-3): 6 nM

CCc1nnc(NC(=O)N[C@H](CO)CCN2CC(Oc3ccc(Cl)cc3)C2)s1 [Example 99, 1-{(S)-3-[3-(4-Chloro-phenoxy)-azetidin-1-yl]-1-hydroxymethyl-propyl}-3-(5-ethyl-[1,3,4]thiadiazol-2-yl)-urea]
IC50 (human CCR-3): 7 nM

COc1cc(NC(=O)N[C@@H](CCN2CC(Oc3ccc(Cl)cc3)C2)COC(C)=O)cc(OC)c1 [Example 122, Acetic acid (S)-4-[3-(4-chloro-phenoxy)-azetidin-1-yl]-2-[3-(3,5-dimethoxy-phenyl)-ureido]-butyl ester]
IC50 (human CCR-3): 22 nM

CCc1nnc(NC(=O)NCCCN2CC(Cc3ccc(Cl)cc3)C2)s1 [Example 190, 1-{3-[3-(4-chloro-benzyl)-azetidin-1-yl]-propyl}-3-(5-ethyl-[1,3,4]thiadiazol-2-yl)-urea]
IC50 (human CCR-3): 11 nM
histamine H1 antagonist activity (histamine H1): histamine H1 antagonists

O=C1c2ccccc2CCC1CNCCc1ccc(O)c(I)c1 (centres unmarked) [[^125I]-HEAT]
Kd [1]: 0.0589 ± 0.0187 nM
